The test system of data set [1] is human platelet-rich plasma. Briefly: Platelet aggregation assay, Aggregation-Human PRP/ADP. It is filed as cell-based. Conditions: inhibition of ADP-induced aggregation of human platelet-rich plasma. On the procedure: No. 2—The Platelet Aggregation Assay
In addition to the ELISA IIb-IIIa assay previously described the Aggregation-Human PRP/ADP Assay is useful for evaluating therapeutic compounds.
Platelet-rich plasma was prepared from healthy human volunteers for use in determining inhibition of platelet aggregation by the compounds. Blood was collected via a 21-gauge butterfly cannula, using a two-syringe technique into 1/10 volume of 3.8% trisodium citrate.
Platelet-rich plasma was prepared at room temperature by centrifugation of the citrated whole blood at 100×g for twelve minutes. The platelet rich plasma contained approximately 200-400,000 platelets/μl.
Platelet-poor plasma was prepared by centrifugation of citrated whole blood at 12,000×g for 2 minutes.
Platelet aggregation was assayed in a 4-channel platelet aggregatiob profiler (PAP-4, Biodata, Hatboro, Pa.) according to the manufacturers directions. Inhibition of platelet aggregation was studied by adding varying amounts of adenosine diphosphate (ADP) to stirred human platelet-rich plasma. Specifically, the human platelet-rich plasma was incubated with the compound being tested for 1 minute at 37° C. prior to the addition of a variety of aggregating agents most often ADP 5 μM, but also 1 μg/ml collagen, 1 μM U46619 and 0.3 μM platelet activating factor.

The next data set concerns the target T1, GPIIb-IIIa (Homo sapiens, UniProt P05106+P08514).
T1 construct: Purified platelet GPIIb-IIIa receptor was prepared as described by Fitzgerald; from tissue; host or cells: platelets
Nature of the data set: ELISA IIb-IIIa assay (fibrinogen binding to immobilized GPIIb-IIIa). Conditions: inhibition of biotinylated fibrinogen binding to plate-coated purified platelet GPIIb-IIIa receptor. On the procedure: No. 1—The ELISA IIb-IIIa Assay:
In the following assay, GPIIb-IIIa is prepared in purified form, by a method such as described by Fitzgerald, L. A., et al., Anal Biochem (1985) 151:169-177, (the disclosure of which is incorporated herein by reference). GPIIb-IIIa is coated onto microtiter plates. The coated support is then contacted with fibrinogen and with the test material (e.g., compounds of Formula I) and incubated for a sufficient time to permit maximal binding of fibrinogen to the immobilized GPIIb-IIIa. Fibrinogen is typically provided at a concentration of about 5-50 nM and the test material can, if desired, be added at a series of dilution. Typical incubations are 2 to 4 hours at 25° C., the time and temperature being interdependent.
After incubation, the solution containing the fibrinogen and test material is removed and the level of binding of fibrinogen measured by quantitating bound fibrinogen to GPIIb-IIIa. Any suitable means of detection may be used, but it is convenient to employ labeled fibrinogen, for example using biotinylated labels. Such methods are well known in the art.
A. Description of Assays—Plate Assays
Purified platelet GPIIb-IIIa receptor was prepared as described by Fitzgerald, L. A., et al., Anal Biochem (1985) 151:169-177 (1985). Vitronectin receptor was prepared as described by Smith, J. W., J. Biol Chem (1988) 263:18726-18731. After purification, the receptors were stored in 0.1% Triton X-100 at 0.1-1.0 mg/ml.
The receptors were coated to the wells of 96-well flat-bottom ELISA plates (Linbro EIA-Plus microtiter plate, Flow Laboratories) after diluting 1:200 with a solution of 20 mM Tris-HCl, 150 mM NaCl, 1 mM CaCl2, pH 7.4, to reduce the Triton X-100 concentration to below its critical micellar concentration and adding an aliquot of 100 ul to each well. The wells were all allowed to incubate overnight at 4° C., and then aspirated to dryness. Additional sites were blocked by the addition of bovine serum albumin (BSA) at 35 mg/ml in the above buffer for two hours at 30° C. to prevent nonspecific binding. The wells were then washed once with binding buffer ([…] Tris-HCl, 100 mM NaCl 2 mM CaCl2, 1 mg/ml BSA).
The corresponding ligands (fibrinogen, von Willebrand Factor, or vitronectin) were conjugated to biotin using commercially available reagents and standard protocols. The labeled ligands were added to the receptor-coated wells at final concentration of 10 nM (100 ul/well) and incubated for 3 hours at 25° C. in the presence or absence of the test samples. After incubation, the wells are aspirated to dryness and bound ligand is quantitated.
The bound protein is detected by the addition of antibiotin antibody conjugated to alkaline phosphatase followed by addition of substrate (p-nitrophenyl phosphate), and determination of the optical density of each well at […]. Decreased color development is observed in wells incubated with test samples which inhibit binding of ligand to receptor.

T1 sequence (P08514 32-887 limits assumed): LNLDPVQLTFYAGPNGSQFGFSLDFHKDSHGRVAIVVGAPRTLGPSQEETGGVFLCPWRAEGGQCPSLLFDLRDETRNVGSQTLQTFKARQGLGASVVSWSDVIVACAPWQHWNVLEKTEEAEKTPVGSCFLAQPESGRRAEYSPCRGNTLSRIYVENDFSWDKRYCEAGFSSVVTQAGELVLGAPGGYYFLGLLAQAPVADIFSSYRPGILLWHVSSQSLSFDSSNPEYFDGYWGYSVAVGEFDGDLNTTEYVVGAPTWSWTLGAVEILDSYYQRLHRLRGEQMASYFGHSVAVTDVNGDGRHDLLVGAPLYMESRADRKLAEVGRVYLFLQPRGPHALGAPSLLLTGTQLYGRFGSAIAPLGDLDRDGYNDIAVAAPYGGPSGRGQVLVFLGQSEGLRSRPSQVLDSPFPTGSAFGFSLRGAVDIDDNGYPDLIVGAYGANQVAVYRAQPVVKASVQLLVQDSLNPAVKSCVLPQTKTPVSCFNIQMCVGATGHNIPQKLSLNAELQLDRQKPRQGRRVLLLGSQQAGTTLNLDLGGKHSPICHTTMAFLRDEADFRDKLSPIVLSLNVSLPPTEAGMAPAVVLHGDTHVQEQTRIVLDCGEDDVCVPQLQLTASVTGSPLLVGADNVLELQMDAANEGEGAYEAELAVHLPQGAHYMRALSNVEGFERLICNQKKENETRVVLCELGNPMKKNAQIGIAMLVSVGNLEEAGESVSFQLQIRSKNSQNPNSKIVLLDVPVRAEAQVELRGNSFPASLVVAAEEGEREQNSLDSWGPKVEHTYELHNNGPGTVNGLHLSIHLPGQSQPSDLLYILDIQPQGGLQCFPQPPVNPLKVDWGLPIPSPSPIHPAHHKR
T1 sequence (P08514 891-1039 limits assumed): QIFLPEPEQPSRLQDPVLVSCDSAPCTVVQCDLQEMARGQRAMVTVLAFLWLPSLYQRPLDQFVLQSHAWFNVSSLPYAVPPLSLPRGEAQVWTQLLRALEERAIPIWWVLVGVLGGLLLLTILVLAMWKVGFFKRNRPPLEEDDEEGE
T1 sequence (P05106 27-788): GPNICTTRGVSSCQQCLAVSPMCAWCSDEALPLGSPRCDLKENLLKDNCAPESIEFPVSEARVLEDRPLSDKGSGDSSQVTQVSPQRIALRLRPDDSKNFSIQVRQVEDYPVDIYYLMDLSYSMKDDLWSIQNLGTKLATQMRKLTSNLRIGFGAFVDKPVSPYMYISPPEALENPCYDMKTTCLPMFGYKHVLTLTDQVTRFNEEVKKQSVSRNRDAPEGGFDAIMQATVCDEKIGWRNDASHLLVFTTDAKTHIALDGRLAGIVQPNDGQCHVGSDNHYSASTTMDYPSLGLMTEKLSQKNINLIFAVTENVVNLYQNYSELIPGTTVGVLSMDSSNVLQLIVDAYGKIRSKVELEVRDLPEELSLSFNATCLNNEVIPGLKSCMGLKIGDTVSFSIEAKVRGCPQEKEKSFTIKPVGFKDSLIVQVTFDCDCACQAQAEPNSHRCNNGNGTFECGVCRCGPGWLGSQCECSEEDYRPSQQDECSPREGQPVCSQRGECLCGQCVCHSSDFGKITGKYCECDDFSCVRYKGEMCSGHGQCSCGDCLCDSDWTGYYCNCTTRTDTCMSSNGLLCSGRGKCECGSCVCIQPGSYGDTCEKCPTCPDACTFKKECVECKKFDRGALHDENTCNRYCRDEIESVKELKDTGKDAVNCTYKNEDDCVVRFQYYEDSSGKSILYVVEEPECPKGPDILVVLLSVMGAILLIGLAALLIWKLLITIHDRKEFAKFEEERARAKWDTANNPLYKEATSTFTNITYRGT

As to `N=C(N)c1ccc(C(=O)N2CCC3(CC2)CN(CC(=O)O)C(=O)O3)cc1` [Example 30, (8-(4-(Aminoiminomethyl)benzoyl)-2-oxo-1-oxa-3,8-diaza-spiro[4.5]dec-3-yl)acetic Acid], the melting point was 157 to 159 °C. Further, the IC50 in data set [1] amounted to 80 µM. Further, at GPIIb-IIIa, the IC50 worked out at 29 µM.

On to `N=C(N)c1ccc(CC(=O)NC2CCC3(CC2)CN(CC(=O)O)C(=O)O3)cc1` (stereo not drawn) [Example 35, (8-(2-(4-(Aminoiminomethyl)phenyl)acetamido)-2-oxo-1-oxa-3-aza-spiro[4.5]dec-3-yl)acetic Acid], for which the melting point is 193 to 196 °C. For the same compound, inhibition in data set [1] was half-maximal at 0.77 µM (IC50). The compound further came in with an IC50 at GPIIb-IIIa of 0.19 µM.

For the origin of these results see patent US6528534B2 (Millennium Pharmaceuticals, Inc., priority 1995, dated 2003).
